Data on 6 compounds can be found in US20230151336A1, “STEM CELL DERIVED SINGLE-ROSETTE BRAIN ORGANOIDS AND RELATED USES THEROF” (The Regents of the University of Michigan, priority 2020, published 2023).

Holding throughout (assay type): cell-based, human
For data set [1], the system named is self-organizing single-rosette spheroids (SOSRS). Nature of the data set: SOSRS cell death and growth during dorsal differentiation. As to the method:
iPSC lines were passaged using Accutase (Innovative cell) and replated onto Geltrex-coated (1:50 dilution in DMEM/F12) 12-well plates at 1.5-2×10^5 cells/well in mTeSR1 with 10 μM rho-kinase inhibitor (Y-27632; Tocris, 1254). The medium without the inhibitor was replaced daily until the cells reach 80-100% confluency. The medium was then changed to 3N (50:50 DMEM/F12:neurobasal with N2 and B27 supplements) (see, Shi, Y., et al., Nature Neuroscience 15, 477-486 (2012)) without vitamin A with 2 μM DMH1 (Tocris, 4126), 2 μM XAV939 (Cayman Chemical, 13596), and 10 μM SB431542 (Cayman Chemical, 13031) (4 mL of medium per well). 75% of this medium was changed daily with 1 μM cyclopamine (Cayman Chemical, 11321) added beginning on day 1. On day 4, the monolayer was cut into squares using the StemPro EZ passage tool. The squares were then washed once with PBS and incubated for 2 minutes with L7 hPSC passaging solution (Lonza). After aspirating the L7 solution, the squares were sprayed off the bottom with the same culture medium 1 mL of preconditioned culture media with a P1000 micropipette. An additional 2 mL of fresh culture medium with the 4 inhibitors was added for a final volume of 3 mL. Approximately 200 μL of resuspended squares were then transfer into the wells of 96-well plates preincubated at 37° C. for 20 minutes with 30 μL of 100% Geltrex solution in each well. Up to 16 wells can be made using one monolayer well. Higher densities will result in fusion between nearby SOSRS forming multi-rosette doublets or “strings”. After 48 hours, daily 50% media changes were performed. On day 6 overall (2 days after cutting), the four inhibitors were no longer added but replaced with the 3 μM CHIR99021. After 3-4 additional days of culture, the wells were washed once with PBS and incubated for 2 minutes with L7 solution. The organoids were individually removed using the STRIPPER (Cooper Surgical) with 275 μM tips and plated individually in the wells of a low-adherence U-bottom 96-well plate with 200 μL of 3N medium without vitamin A with 3 μM CHIR99021, BDNF (20 ng/mL), and NT3 (20 ng/mL). […]

In another data set the test system is ventral SOSRS. The data set can be described thus: Ventral SOSRS patterning (immunostaining, size). As to the method:
For ventral SOSRS differentiation, no cyclopamine or CHIR99021 were used. After plating onto Geltrex, 1 μM SAG and 2 μM XAV939 were added the culture media for 1 week. All other procedures were performed identically (FIG. 5).
SOSRS imaged before day 11 were grown on Nunc™ Lab-Tek™ III 8-well chamber slides (Thermo Scientific) and were fixed in paraformaldehyde for 30 min at room temperature (RT). After permeabilization with 0.2% Triton-X 100 for 20 min at RT, cells were incubated in PBS containing 5% normal goat serum with 1% BSA and 0.05% Triton-X100 for 1 h at RT. Older SOSRS were fixed for 30 minutes in suspension and incubated in 30% sucrose overnight at 4 C followed by embedding in TFM medium and freezing on dry ice. The blocks were sectioned on a Cryostat with 20 μM section thickness. All samples were incubated in primary antibody overnight (see Supplemental Table 2 for antibodies and dilutions) in the same blocking buffer at 4° C., washed 4 times in PBS with 0.05% Tween-20 (PBST), and incubated for 90 min with secondary antibody. Cells were washed 3 times in PBST and incubated with bisbenzimide for 5 min. After additional PBS washes, coverslips were mounted on slides with Glycergel mounting medium (Agilent Dako). Images were obtained on a Leica SP5 upright DMI 6000 confocal microscope. […]

Data set [2] has as its system self-organizing single-rosette spheroids (SOSRS). The data set can be described thus: SOSRS neuroteratogen screening (structural read-out of lumen/neurulation). As to the method: iPSC lines were passaged using Accutase (Innovative cell) and replated onto Geltrex-coated (1:50 dilution in DMEM/F12) 12-well plates at 1.5-2×10^5 cells/well in mTeSR1 with 10 μM rho-kinase inhibitor (Y-27632; Tocris, 1254). The medium without the inhibitor was replaced daily until the cells reach 80-100% confluency. The medium was then changed to 3N (50:50 DMEM/F12:neurobasal with N2 and B27 supplements) (see, Shi, Y., et al., Nature Neuroscience 15, 477-486 (2012)) without vitamin A with 2 μM DMH1 (Tocris, 4126), 2 μM XAV939 (Cayman Chemical, 13596), and 10 μM SB431542 (Cayman Chemical, 13031) (4 mL of medium per well). 75% of this medium was changed daily with 1 μM cyclopamine (Cayman Chemical, 11321) added beginning on day 1. On day 4, the monolayer was cut into squares using the StemPro EZ passage tool. The squares were then washed once with PBS and incubated for 2 minutes with L7 hPSC passaging solution (Lonza). After aspirating the L7 solution, the squares were sprayed off the bottom with the same culture medium 1 mL of preconditioned culture media with a P1000 micropipette. An additional 2 mL of fresh culture medium with the 4 inhibitors was added for a final volume of 3 mL. Approximately 200 μL of resuspended squares were then transfer into the wells of 96-well plates preincubated at 37° C. for 20 minutes with 30 μL of 100% Geltrex solution in each well. Up to 16 wells can be made using one monolayer well. Higher densities will result in fusion between nearby SOSRS forming multi-rosette doublets or “strings”. After 48 hours, daily 50% media changes were performed. On day 6 overall (2 days after cutting), the four inhibitors were no longer added but replaced with the 3 μM CHIR99021. After 3-4 additional days of culture, the wells were washed once with PBS and incubated for 2 minutes with L7 solution. The organoids were individually removed using the STRIPPER (Cooper Surgical) with 275 μM tips and plated individually in the wells of a low-adherence U-bottom 96-well plate with 200 μL of 3N medium without vitamin A with 3 μM CHIR99021, BDNF (20 ng/mL), and NT3 (20 ng/mL). Ideal diameters for picking the SOSRS are between 250-300 μM. Two days later half-fold media changes with 3N with vitamin A, BDNF (20 ng/mL), and NT3 (20 ng/mL) and repeated every other day. After 35 days of differentiation, 3N media with vitamin A without neurotrophic factors (BDNF and NT3) is used for half-fold media changes every other day. Around this time, SOSRS are transferred from the low-adherence 96-well plate to a low-adherence 24 well plate for a necessary increase in media volume due to SOSRS size.
SOSRS imaged before day 11 were grown on Nunc™ Lab-Tek™ III 8-well chamber slides (Thermo Scientific) and were fixed in paraformaldehyde for 30 min at room temperature (RT). After permeabilization with 0.2% Triton-X 100 for 20 min at RT, cells were incubated in PBS containing 5% normal goat serum with 1% BSA and 0.05% Triton-X100 for 1 h at RT. Older SOSRS were fixed for 30 minutes in suspension and incubated in 30% sucrose overnight at 4 C followed by embedding in TFM medium and freezing on dry ice. The blocks were sectioned on a Cryostat with 20 μM section thickness. All samples were incubated in primary antibody overnight (see Supplemental Table 2 for antibodies and dilutions) in the same blocking buffer at 4° C., washed 4 times in PBS with 0.05% Tween-20 (PBST), and incubated for 90 min with secondary antibody. Cells were washed 3 times in PBST and incubated with bisbenzimide for 5 min. After additional PBS washes, coverslips were mounted on slides with Glycergel mounting medium (Agilent Dako). Images were obtained on a Leica SP5 upright DMI 6000 confocal microscope.
This 3D model of human neurulation allowed us to test known neuroteratogens that block a specific pathway necessary for proper neural tube formation. These were the rho-kinase inhibitor, Y-27632, and the non-muscle myosin inhibitor, blebbistatin^26, 27. […]

[3] abbreviates: addition from day 6-10, 3 μM, FIG. 2.

On to `Cc1c[nH]c(-c2cnc(NCCNc3ccc(C#N)cn3)nc2-c2ccc(Cl)cc2Cl)n1` [CHIR99021], for which, in data set [1] (setting [3]), the SOSRS growth result is “grow more rapidly” and the “cell death around SOSRS perimeter” value was “blocked the majority of cell death”. Also, the PAX6 positive cells result in data set [1] (pulse day 6-10, FIGS. 1i and j) was “rapid expansion”.
`CNC1CCC(N(Cc2cccc(-c3ccncc3)c2)C(=O)c2sc3ccccc3c2Cl)CC1` (stereo not drawn) [SAG] registered an NKX2.1/FOXG1 positive cells in the data set on ventral SOSRS (one-month SOSRS, SAG instead of CHIR99021 from day 7 to day 14, XAV939 continued) of about 100%.
Turning to `CC(/C=C/C(=O)NO)=C\[C@@H](C)C(=O)c1ccc(N(C)C)cc1` [TSA], the “replication of the VPA effect on ratio of lumen area to SOSRS area” value in data set [2] is reported as “not replicated”.
For `Oc1nc(-c2ccc(C(F)(F)F)cc2)nc2c1CSCC2` [XAV939, 3,5,7,8-Tetrahydro-2-[4-(trifluoromethyl)phenyl]-4H-thiopyrano[4,3-d]pyri-midin-4-one], the “SOSRS size and MGE specification” value with ventral SOSRS (continued day 7 to day 14 with SAG, data not shown) is “increase”.
As to `C[C@@H](N)[C@H]1CC[C@H](C(=O)Nc2ccncc2)CC1` [Y-27632], in data set [2], the “apical end-feet surface areas (ZO-1)” value was “increased”, the lumen circularity entry was “decreased” and the lumen/total area result is “increased”.
`Cc1ccc2c(c1)C(=O)C1(O)CCN(c3ccccc3)C1=N2` (stereo not drawn) [blebbistatin]: in data set [2], the “apical end-feet surface areas (ZO-1)” value is on record as “increased”, the lumen circularity entry is recorded as “decreased” and the lumen/total area result is reported as “increased”.
